Measurements reported in US6841537B1, “Combination therapy using nucleic acids and conventional drugs” (Protiva Biotherapeutics Inc., priority 1998, dated 2005).

How the values were obtained:
SK-OV-3 cells [1] = assay: Cell cycle arrest by aphidicolin, propidium iodide staining and flow cytometry; type: cell-based, human; conditions: (+/−) culture
Description: SK-OV-3 or HeLa-luc cells were seeded at a density of 30,000 cells per well in a 24 well plate in growth media 24 hours prior to treatment with aphidicolin. Aphidicolin (Sigma) was reconstituted in phosphate buffered saline containing 0.5% DMSO. Cells were incubated with aphidicolin at a final concentration of 5 μg/mL in 1 mL of media per well for 16 hours prior to transfection. Transfection was accomplished by the addition of 0.5 μg of formulated DNA to each well.
The cell cycle status of cultures was determined by flow cytometry of permeabilized cells that were stained with propidium iodide. Prior to harvesting, media was aspirated and the cells were washed twice with 2 mL phosphate buffered saline (PBS). […] 5,000 cells were analyzed in the FL2 channel (λemission=585+/−21 nm) of a FACSort flow cytometer (Becton-Dickinson, San Jose, Calif.) equipped with an Ar- ion laser (λexcitation=488 nm)
In an initial study, the effectiveness of a non-lethal concentration of aphidicholin to arrest SK-OV-3 cells was determined. A sub-confluent asynchronous cell culture contained approx. 75%, 5% and 20% of cells in G1, S and M phase, respectively, as measured by staining with propidium iodide (PI) followed by flow cytometry (FIG. 1(A)). […]

SK-OV-3 cells [2] = assay: Lipid mediated transfection (luciferase activity) in aphidicolin treated cells; type: cell-based, human
Description: Lipoplexes were prepared as follows: All reagents were sterile and cooled to 4° C. prior to complex preparation. A solution containing 62 μM dioleoyldimethylammonium chloride:1,2-sn-dioleoylphosphatidylethanolamine (DODAC:DOPE) large unilamellar vesicles (LUVs) and a solution containing 10 μg/mL plasmid DNA were prepared in distilled water. The DNA was added to an equal volume of lipid dropwise, while vortexing. The solution was incubated on ice for 30 minutes prior to transfection. The resulting lipoplexes contained a final DNA concentration of 0.5 μg/100 μL and the cationic lipid:DNA (+:−) charge ratio was 1:1.
Plasmid containing a therapeutic gene was encapsulated as SPLP using the detergent dialysis method of INEX 351. […]
(§1) Luciferase assays were performed using the Luciferase Assay System kit (Promega, Madison, Wis.) according to the manufacturer's protocol. […] A standard curve was determined by assaying 20 μL of serial dilutions of a 1 mg/mL luciferase standard (Boehringer Mannheim). […] Absorbance was monitored at 570 nm (Dynatech MR5000 plate reader) and protein content calculated using a standard curve of varying concentrations of BSA.
An initial experiment was performed to determine whether lipid mediated transfection was affected by the cell cycle status of SK-OV-3 cells in vitro. […] Luciferase activity was measured after 24 hrs of continuous exposure to lipoplexes. […]

SK-OV-3 cells [3] = assay: Uptake of YOYO-1 labeled plasmid DNA lipoplexes by flow cytometry; type: cell-based, human; conditions: aphidicolin arrested vs control cells
Description: SK-OV-3 or HeLa-luc cells were seeded at a density of 30,000 cells per well in a 24 well plate in growth media 24 hours prior to treatment with aphidicolin. Aphidicolin (Sigma) was reconstituted in phosphate buffered saline containing 0.5% DMSO. Cells were incubated with aphidicolin at a final concentration of 5 μg/mL in 1 mL of media per well for 16 hours prior to transfection. Transfection was accomplished by the addition of 0.5 μg of formulated DNA to each well. […]
Lipoplexes were prepared using YOYO-1 labeled DNA and incubated with cells. […] Fluorescence was measured in the FL1 channel (λemission=530+/−15 nm) of a FACSort flow cytometer (Becton-Dickinson, San Jose, Calif.) equipped with an Ar- ion laser ([…]). Data was collected from 10,000 cells and analyzed for fluorescence using CellQuest software.
In order to determine whether aphidicolin treatment affects cellular processes related to transgene expression, effects on DNA uptake and gene expression were studied. It has been shown previously that fluorescently labeled DNA can be formulated as lipoplexes and the uptake of lipoplexes can be measured by flow cytometry (see, Zabner, et al., J. Biol. Chem., 270:18997-19007 (1995); and Tseng, et al., Biotechnol. Bioeng., 50:548-554 (1996);). […] The rate of lipoplex uptake per cell was determined by flow cytometry. […]

HeLa-luc cells = assay: Effect of aphidicolin on constitutive CMV driven luciferase gene expression; type: cell-based, human; conditions: 0, 6 and 24 hours after arrest vs untreated control cells
Description: SK-OV-3 cells (human ovarian tumor cells, ATCC) were cultured in RPMI 1640 media (StemCell Technologies, Vancouver, B.C.) supplemented with 10% fetal bovine serum (Intergen). HeLa-luc cells were stably transfected with a luciferase reporter plasmid and cultured in Dulbecco's modified Eagle medium (StemCell Technologies, Vancouver, B.C.) supplemented with 10% fetal bovine serum and 400 μg/mL Geneticin (Gibco BRL). […]
as §1
To determine the effect of aphidicolin-mediated cell cycle arrest on the transcriptional and translational machinery of the cell, a clonal HeLa cell line stably transfected with a CMV driven luciferase expression cassette (Song, Inex Pharmaceuticals, unpublished) was analyzed. […]

MCA 207 tumor [4] = assay: Combination therapy: OncoTCS then i.v. INEX 324 with pINEX-IL-12, tumor size; type: in vivo, C57 BL/6 mice; conditions: subtherapeutic dose (OncoTCS 0.5 mg/kg i.v.) before INEX 324 i.v. 100 μg DNA
Description: C57 BL/6 mice are seeded subcutaneously with MCA 207 tumor cells. Tumor seeding is performed by standard techniques. Mice were seeded subcutaneously on the hip flank with 100,000 MCA-207 fibrosarcoma tumor cells by sub-cutaneous injection on day zero.
On days 7-10, when tumors had developed to useable sizes, mice were injected i.v. via tail vein with approximately 0.5 mg/kg of OncoTCS (200 μL).
At 8, 16, 24, 30, 36, 42 or […] after OncoTCS treatment, the mice were injected i.v. via tail vein with INEX 324 (100 μg DNA pINEX-1L-12 with about 500 μg lipid all in about 200 μL total volume). Control mice received HBS.

B16 cells = assay: Luciferase activity in i.p. tumors after i.p. INEX 324 following OncoTCS; type: in vivo, C57 mice; conditions: OncoTCS 0.5 mg/kg i.v. 24 hours before INEX 324 i.p. 20 micrograms
Description: […] are seeded intraperitoneally with about 100,000 B16 cells. On day 7, 12 mice are injected i.v. via the tail vein with about 0.5 mg/kg of OncoTCS (vincristine sulfate encapsulated in sphingomyelin-containing TCS) in about 200 microliters. 12 control mice are not treated with OncoTCS. 24 hours later, all mice are injected i.p. with 20 micrograms of INEX 324 (TCS containing luciferase plasmid pINEX L018) in 500 microliters. Tumors are harvested 6, 12, 24 and 48 hours later, fast frozen, and stored at −70° C. until analyzed for luciferase activity. The frozen organs are then thawed at room temperature. 600 microliters of 1× cell culture lysis buffer (Promega) is added and the samples are homogenized in a FASTPREP homogenizer for 20 sec. at speed 4.0. The samples are centifuged for 2 min. at 10,000 g, and 20 microliters of the supernatant is assayed for luciferase activity.

MCA 207 tumor [5] = assay: Combination therapy: OncoTCS then i.v. INEX 303 with pINEX-TK10 plus ganciclovir, tumor size; type: in vivo, C57 BL/6 mice; conditions: subtherapeutic pretreatment (OncoTCS 0.5 mg/kg i.v.) before INEX 303 pINEX-TK10 i.v. and ganciclovir i.p.
Description: C57 BL/6 mice are seeded subcutaneously with MCA 207 tumor cells. Tumor seeding is performed by standard techniques. Mice are seeded subcutaneously on the hip flank with 100,000 MCA-207 fibrosarcoma tumor cells by […] injection on day zero. The tumor cells are cultivated and prepared according to standard techniques using RPMI media with 10% Fetal Bovine Serum (see, for example, Current Protocols in Molecular Biology, Eds. Ausubel, F. M., et al.)
At 8, 16, 24, 30, 36, 42 or […] after OncoTCS treatment, the mice are injected i.v. via tail vein with INEX 303 containing pINEX-TK10 prepared as described herein (100 μg DNA with about 500 μg lipid all in about 200 μL total volume). Control mice receive HBS.
1 mg ganciclovir, which is in 200 μL PBS (approximately 50 mg/kg; commercially available from Hoffman La Roche) is administered by intraperitoneal injection 12 h and 24 h after SPLP administration.

C[C@@]1(CO)[C@H](O)CC[C@@]2(C)[C@H]1CC[C@H]1C[C@@H]3C[C@@]12CC[C@]3(O)CO [aphidicolin, Aphidicolin]
cells in the G2/M phase (SK-OV-3 cells [1]; 16 hrs after removal of aphidicolin block): approximately 85%
cells that had undergone mitotic division and progressed into the G1 phase (SK-OV-3 cells [1]; within 22 hrs after removal of aphidicolin block): ~45%
decrease in luciferase gene expression (SK-OV-3 cells [2]; (+/+) culture arrested in G1, 24 hrs continuous exposure to DODAC:DOPE lipoplexes, vs asynchronous control): 20 fold
luciferase expression vs control asynchronous culture (SK-OV-3 cells [2]; (+/−) culture, 24 hrs exposure to lipoplexes): did not differ significantly
effect of cell cycle arrest on internalization of lipoplexes (SK-OV-3 cells [3]): does not affect the internalization of lipoplexes
effect on level of luciferase gene expression (HeLa-luc cells): did not significantly affect

CC[C@]1(O)C[C@H]2CN(CCc3c([nH]c4ccccc34)[C@@](C(=O)OC)(c3cc4c(cc3OC)N(C=O)[C@H]3[C@@](O)(C(=O)OC)[C@H](OC(C)=O)[C@]5(CC)C=CCN6CC[C@]43[C@@H]65)C2)C1 [vincristine]
effect on therapeutic effect of pINEX-IL-12 in INEX 324 (MCA 207 tumor [4]): greatly enhances the therapeutic effect
transfection of tumors (B16 cells): transfection of neoplastic sites
tumor growth vs HSV-TK/ganciclovir system alone (MCA 207 tumor [5]): inhibits growth of tumors and promotes tumor regression to a significantly greater degree
